Assay results reported in patent US8501245B2, “Selectively inhibiting estrogen production and providing estrogenic effects in the human body” (Morinda, Inc., priority 2000, dated 2013).
“And” between values parts separate entries of the source, which are not always exact repeats. Equal values may be shown once.

System: ICR derived female immature mice
Assay: Protocol # 531000 Estrogenic Agonism in Mice (uterine wet weight)
Format: in vivo
Conditions: 0.03 mg/kg PO; for % Increase in uterine wet weight: compared with historical vehicle control (16.5 mg)
Description: Tahitian Noni® Puree Juice Concentrate (TNPJC) dry form was evaluated for possible estrogenic agonism is ICT derived immature female mice at a maximum tolerated dose of 4000 mg/kg administered orally once daily for 3 consecutive days. The dry form of TNPJC resulted from using a Rotor Vap with pressure and low temperature.
Test substance TNCONC was evaluated for possible Estrogenic Agonism in ICR derived female immature mice at a maximum tolerated dose of 4000 mg/kg administered orally once daily for 3 consecutive days.
1. Test Substances and Dosing Pattern—TNCONC, provided by Morinda, Inc., was dissolved in 2% Tween 80/0.9% NaCl. For testing, a maximum tolerated dose of 4000 mg/kg was administered […] daily for 3 consecutive days, and a dosing volume of 10 ml/kg was used.
2. Animals—Female ICR mice provided by MDS Pharma Services—Taiwan Ltd. were used. Space allocation for 5 animals was 29×18×13 cm. Animals were housed in APEC^R cages and maintained in a controlled temperature (22° C.-24° C.) and humidity (60%-80%) environment with 12 hours light dark cycles for at least one week in MDS Pharma Services—Taiwan Laboratory prior to use. Free access to standard lab chow for rats (Lab Diet, Rodent Diet, PMI Nutrition International, USA) and tap water was granted. All aspects of this work including housing, experimentation and disposal of animals were performed in general accordance with the International Guiding Principles for Biomedical Research Involving Animals (CIOMS Publication No. ISBN 92 90360194, 1985),
Test substance was administered at a maximum tolerated dose of 4000 mg/kg IP for three consecutive days to a group of 5 ICR derived immature female mice weighing 13±1 g. The animals were sacrificed 24 hours after the final dose and wet weight of the uterus of each animal was measured. A 50 percent or more (≧50%) increase in uterine wet weight relative to control group of animals indicates possible estrogen agonist activity.
A vehicle or test substance was administered IP for three consecutive days to female immature mice weighing 13±1 g. The animals were sacrificed 24 hours after the final dose and wet weight of the uterus of each animal was determined. A 50 percent or more (≧50%) increase in uterine wet weight relative to the vehicle treated group of animals, shown in parenthesis, indicates possible estrogen agonist activity.

## C[C@]12CC[C@@H]3c4ccc(OC(=O)c5ccccc5)cc4CC[C@H]3[C@@H]1CC[C@@H]2O [β-Estradiol 3-Benzoate]
  Weight of Uterus, Average: 30.2 mg
  % Increase in uterine wet weight: (83) %
Listed as Estradiol 3-Bensoate
  % Increase in uterine wet weight: dramatic increase
Listed as β-Estadiol 3-Benzoate
  % Increase in uterine wet weight: 83%
Single animals N 1-5
  Weight of Uterus, Individual: 28.7 mg and 20.7 mg and 31.3 mg and 35.6 mg and 34.9 mg
